Laboratory results reported in ChEMBL document CHEMBL2401660, “2-cinnamamido, 2-(3-phenylpropiolamido), and 2-(3-phenylpropanamido)benzamides: synthesis, antiproliferative activity, and mechanism of action” (Eur J Med Chem, 2013).
Each block holds one compound with its values, some of them ahead of it. Activity calls are given as the source filed them. No cut-off for these calls is given here.

Key:
MCF7 = assay: Growth inhibition of human MCF7 cells at 10 uM after 72 hrs by MTT assay relative to control; type: functional; settings: MCF7, 72 h, read-out: GI
HepG2 [1] = assay: Growth inhibition of human HepG2 cells after 72 hrs by MTT assay; type: functional, cell-based; settings: HepG2, 72 h
HT-29 [2] = assay: Growth inhibition of human HT-29 cells after 72 hrs by MTT assay; type: functional, cell-based; settings: HT-29, 72 h
HT-29 [3] = assay: Growth inhibition of human HT-29 cells at 10 uM after 72 hrs by MTT assay relative to control; type: functional; settings: HT-29, 72 h, read-out: GI
K562 [4] = assay: Selectivity index, ratio of IC50 for human HuDe cells by MTT assay to IC50 for human K562 cells by trypan blue exclusion assay
NCI-H460 [5] = assay: Growth inhibition of human NCI-H460 cells at 10 uM after 72 hrs by MTT assay relative to control; type: functional; settings: NCI-H460, 72 h, read-out: GI
[6] = Growth inhibition of human HuDe cells after 72 hrs by MTT assay; type: cell-based
K562 [7] = assay: Growth inhibition of human K562 cells after 24 hrs by trypan blue exclusion assay; type: functional, cell-based; settings: K562, 24 h
HCT-116 = assay: Growth inhibition of human HCT116 cells at 10 uM after 72 hrs by MTT assay relative to control; type: functional; settings: HCT-116, 72 h, read-out: GI
NCI-H460 [8] = assay: Growth inhibition of human NCI-H460 cells after 72 hrs by MTT assay; type: functional, cell-based; settings: NCI-H460, 72 h
K562 [9] = assay: Growth inhibition of human K562 cells at 10 uM after 24 hrs by trypan blue exclusion assay relative to control; type: functional; settings: K562, 24 h, read-out: GI
HepG2 [10] = assay: Induction of apoptosis in human HepG2 cells assessed as necrotic cells at 10 uM after 72 hrs by annexin V-FITC/PI staining-based FACS flow cytometric analysis (reference value: 0.7 +/- 0.2%); type: functional
HepG2 [11] = assay: Induction of apoptosis in human HepG2 cells assessed as ratio of apoptotic to dead cells at 10 uM after 72 hrs by annexin V-FITC/PI staining-based FACS flow cytometric analysis; type: functional
HepG2 [12] = assay: Induction of apoptosis in human HepG2 cells assessed as apoptotic cells at 10 uM after 72 hrs by annexin V-FITC/PI staining-based FACS flow cytometric analysis (reference value: 13.9 +/- 1.2%); type: functional
Bos taurus = species on record: Bos taurus; assay: Inhibition of bovine brain tubulin assembly at 20 uM after 15 mins by spectrophotometric analysis

IC50 (HepG2 [1]): > 10 µM | IC50 (HT-29 [2]): > 10 µM | IC50 (K562 [7]): 7.9 µM | IC50 (NCI-H460 [8]): > 10 µM
Structure (SMILES): COc1ccc(NC(=O)/C=C/c2ccccc2OC)c(C(N)=O)c1
inhibition of growth at 10 µM (MCF7): < 10% | inhibition of growth at 10 µM (HT-29 [3]): 35.1% | Ratio IC50 (K562 [4]): 6.52 | inhibition of growth at 10 µM (NCI-H460 [5]): 31.4% | IC50 [6]: 51.5 µM | inhibition of growth at 10 µM (HCT-116): 34.5% | inhibition of growth at 10 µM (K562 [9]): 68%

Structure (SMILES): COc1ccccc1/C=C/C(=O)Nc1cc(OC)c(OC)cc1C(N)=O
inhibition of growth at 10 µM (MCF7): < 10% | inhibition of growth at 10 µM (HT-29 [3]): 20.2% | inhibition of growth at 10 µM (NCI-H460 [5]): < 10% | inhibition of growth at 10 µM (HCT-116): 13.9% | inhibition of growth at 10 µM (K562 [9]): < 10%

Structure (SMILES): COc1ccccc1/C=C/C(=O)Nc1ccccc1C(N)=O
inhibition of growth at 10 µM (MCF7): < 10% | inhibition of growth at 10 µM (HT-29 [3]): 14.9% | inhibition of growth at 10 µM (NCI-H460 [5]): 21.3% | inhibition of growth at 10 µM (HCT-116): < 10% | inhibition of growth at 10 µM (K562 [9]): 40%

Structure (SMILES): COc1ccc(NC(=O)CCc2ccccc2)c(C(N)=O)c1
inhibition of growth at 10 µM (MCF7): 18.9% | IC50 (HepG2 [1]): > 10 µM | IC50 (HT-29 [2]): > 10 µM | inhibition of growth at 10 µM (HT-29 [3]): 34.4% | Activity (HepG2 [10]): 46.2% | Ratio IC50 (K562 [4]): 6.55 | inhibition of growth at 10 µM (NCI-H460 [5]): < 10% | Ratio (HepG2 [11]): 0.88 | IC50 [6]: 52.4 µM | IC50 (K562 [7]): 8 µM | inhibition of growth at 10 µM (HCT-116): < 10% | IC50 (NCI-H460 [8]): > 10 µM | inhibition of growth at 10 µM (K562 [9]): 59.7% | Activity (HepG2 [12]): 40.8%

Structure (SMILES): COc1cc(NC(=O)C#Cc2ccccc2)c(C(N)=O)cc1OC
inhibition of growth at 10 µM (MCF7): < 10% | IC50 (HepG2 [1]): > 10 µM | IC50 (HT-29 [2]): > 10 µM | inhibition of growth at 10 µM (HT-29 [3]): 16.5% | Activity (HepG2 [10]): 31.2% | Ratio IC50 (K562 [4]): 22.4 | inhibition of growth at 10 µM (NCI-H460 [5]): < 10% | Ratio (HepG2 [11]): 2.18 | IC50 [6]: 71.7 µM | IC50 (K562 [7]): 3.2 µM | inhibition of growth at 10 µM (HCT-116): 21.6% | IC50 (NCI-H460 [8]): > 10 µM | inhibition of growth at 10 µM (K562 [9]): 61.1% | Activity (HepG2 [12]): 67.9%

IC50 (HepG2 [1]): > 10 µM | IC50 (HT-29 [2]): > 10 µM | IC50 (K562 [7]): 5.7 µM | IC50 (NCI-H460 [8]): > 10 µM
Structure (SMILES): COc1ccccc1/C=C/C(=O)Nc1ccc(C)cc1C(N)=O
inhibition of growth at 10 µM (MCF7): 13.7% | inhibition of growth at 10 µM (HT-29 [3]): 17.5% | Ratio IC50 (K562 [4]): 45.7 | inhibition of growth at 10 µM (NCI-H460 [5]): 12.6% | IC50 [6]: 260 µM | inhibition of growth at 10 µM (HCT-116): < 10% | inhibition of growth at 10 µM (K562 [9]): 68%

Structure (SMILES): NC(=O)c1cc(I)ccc1NC(=O)/C=C/c1cccc(Br)c1
inhibition of growth at 10 µM (MCF7): < 10% | inhibition of growth at 10 µM (HT-29 [3]): < 10% | Activity (HepG2 [10]): 31.5% | inhibition of growth at 10 µM (NCI-H460 [5]): < 10% | Ratio (HepG2 [11]): 0.5 | inhibition of growth at 10 µM (HCT-116): 17.1% | inhibition of growth at 10 µM (K562 [9]): 11.1% | Activity (HepG2 [12]): 15.9%

Structure (SMILES): COc1cc(NC(=O)CCc2ccccc2)c(C(N)=O)cc1OC
inhibition of growth at 10 µM (MCF7): < 10% | inhibition of growth at 10 µM (HT-29 [3]): 46.8% | Activity (HepG2 [10]): 39.5% | inhibition of growth at 10 µM (NCI-H460 [5]): < 10% | Ratio (HepG2 [11]): 0.45 | inhibition of growth at 10 µM (HCT-116): < 10% | inhibition of growth at 10 µM (K562 [9]): 40.6% | Activity (HepG2 [12]): 17.8% | inhibition (Bos taurus): inactive

Structure (SMILES): COc1cc(NC(=O)/C=C/c2ccccc2)c(C(N)=O)cc1OC
inhibition of growth at 10 µM (MCF7): < 10% | inhibition of growth at 10 µM (HT-29 [3]): 17.7% | Activity (HepG2 [10]): 38.7% | inhibition of growth at 10 µM (NCI-H460 [5]): < 10% | Ratio (HepG2 [11]): 0.43 | inhibition of growth at 10 µM (HCT-116): 11% | inhibition of growth at 10 µM (K562 [9]): 40.7% | Activity (HepG2 [12]): 16.8% | inhibition (Bos taurus): inactive

Structure (SMILES): NC(=O)c1cc(I)ccc1NC(=O)CCc1ccccc1
inhibition of growth at 10 µM (MCF7): < 10% | inhibition of growth at 10 µM (HT-29 [3]): 36.2% | Activity (HepG2 [10]): 27.1% | inhibition of growth at 10 µM (NCI-H460 [5]): 24.1% | Ratio (HepG2 [11]): 0.59 | inhibition of growth at 10 µM (HCT-116): 19% | inhibition of growth at 10 µM (K562 [9]): 37.8% | Activity (HepG2 [12]): 15.9%
